The text below walks through data of patent publication US7507792B2, “MDA-7 proteins and methods of use thereof” (The Trustees of Columbia University In The City of New York, priority 1993, dated 2009).

Entries after “also recorded” stand apart in the source; their conditions may differ.

The subject of one assay is mda-4. The experiment in a line: mda-4 expression (Northern blotting). Type of assay: cell-based, human. The note with it: H0-1; 96 hours; doses of FIG. 15 legend. The protocol:
(§1) The mass excision of the library was performed using ExAssist helper phage as described above. The SOLR strain of Escherichia coli and cDNA phagemids were mixed at 37° C. for 15 min and plated onto LB plates containing ampicillin and IPTG/X-gal. White colonies were chosen at random, isolated and grown in LB medium. Plasmid minireps and restriction enzyme digestions were performed to confirm the presence of inserts. The inserts were isolated and used as robes for Northern blotting analysis (5,25). […] Radiolabeled probes were generated by random oligonucleotide priming (25). Prehybridization, hybridization, posthybridization washes, and autoradiography were performed as described (5,18,25).

The test system of assay [1] is H0-1 human melanoma cell line. In words: 96-h growth suppression (cell number by Coulter Counter). In kind it is cell-based. The following applies: H0-1 cells, degree of initial 96 hr growth suppression versus untreated control. The protocol:
FIG. 1A-B Effect of continuous exposure to various growth and differentiation modulating agents on the 96-h growth of the human melanoma cell line, H0-1. Cells were seeded at 5×10^4/35-mm tissue culture plate and 24 h later the medium was changed with the indicated compounds. Cell numbers were determined by Coulter Counter after 96-h growth. Further details can be found in Materials and Methods.
The H0-1 cell line is a melanotic melanoma derived from a person and was used between passage 100 and 125 (6,8,13). H0-1 cells were kindly provided by Dr. Beppino C. Giovanella, Stehlin Foundation for Cancer Research, Houston, Tex. Cultures were grown at 37° C. in a 95% air 5% CO2-humidified incubator in Dulbecco's modified Eagle's medium (DMEM) supplemented with 10% fetal bovine serum (DMEM-10) (Hyclone, Logan, Utah). H0-1 cells were maintained in the logarithmic stage of growth by subculturing (1:5 or 1:10) prior to confluency approximately every 4 to 5 days. […] Total cell numbers were determined after days 4, 7, 14, and 21, using a ZM Coulter Counter, and viable cell numbers were determined by trypan blue dye exclusion (6). […] Increases in cell number (two or more population doublings) after removal of the inducing agent(s) was considered reversible growth suppression. […] Conditioned medium was collected from treated cultures, contaminating cells were removed by centrifugation at 1000 rpm/10 min., and conditioned medium was stored at 4° C. until assayed for gene modulatory activity. Control conditioned medium was obtained as experimental conditioned medium from cells receiving only a medium change 24 hours after plating in the absence of test compound(s) and growth for 72 hours in DMEM-10.

The next assay relates to mda-9. In words: mda-9 expression (Northern blotting). Type of assay: cell-based, human. The following applies: H0-1; 96 hours; doses of FIG. 15 legend. How it is done: as §1
A further assay has as its system mda-6. In words: mda-6 expression (Northern blotting). The note with it: H0-1; 96 hours; doses of FIG. 15 legend. In kind it is cell-based, human. How it is done: as §1
Total cytoplasmic RNA was isolated and Northern blotting hybridization was performed as described (Reddy et al., 1991; Su et al., 1991; Jiang et al., 1992). Ten μg of RNA was denatured with glyoxal/DMSO, electrophoresed on 1.0% agarose gels, transferred to nylon membranes and hybridized to a ^32P-labeled p53 probe (Baker et al., 1990). The nylon membrane was stripped and hybridized to a ^32P-labeled mda-6 probe (Jiang and Fisher, 1993) and then after a second stripping the membrane was hybridized to a ^32P-labeled rat GAPDH probe (Fort et al., 1985), as described previously (Reddy et al., 1991; Su et al., 1991; Jiang et al., 1992). Following hybridization, the filters were washed and exposed for autoradiography (Reddy et al., 1991; Su et al., 1991; Jiang et al., 1992). mda-6 and GAPDH gene expression were also determined by reverse transcription-polymerase chain reaction (RT-PCR) as described (Adollahi et al., 1991; Lin et al., 1994; Jiang et al., 1994b). Total cytoplasmic RNA was treated with 0.5 units DNase (Boehringer-Mannheim Biochemicals)/μg RNA in 15% glycerol, 10 mM Tris, pH 7.5, 2.5 mM MgCl2, 0.1 mM EDTA, 80 mM KCl, 1 mM CaCl2 and 1 unit/ml RNasin (Promega) at 30° C. for 10 min. RNA was extracted with phenol-chloroform, precipitated with sodium acetate/ethanol and RNA pellets were resuspended in diethylpyrocarbonate-treated H2O. One μg of total RNA was reverse transcribed with 200 units of murine leukemia virus reverse transcriptase (Bethesda Research Laboratories) in 20 μl containing 1 mM deoxyribonucleotide triphosphates, 4 mM MgCl2, 10 mM Tris, pH 8.3, 50 mM KCl, 0.001% gelatin and 0.2 μg oligo-dT primer. Samples were adjusted to 100 μl with buffer containing 0.2 mM deoxyribonucleotide triphosphates, 2 mM MgCl2, 10 mM Tris, pH 8.3, 50 mM KCl and 0.001% gelatin. Fifty pmol of each primer, 1.5 units Taq DNA polymerase (Perkin-Elmer Cetus) were added and samples were covered with mineral oil, heated at 95° C. for 5 min and subjected to 25 cycles of PCR in a Perkin-Elmer Thermal Cycler using 1 min denaturation at 94° C., 2 min annealing at 55° C. and 3 min polymerization at 72° C. After extraction with chloroform, 20 μl of products were electrophoresed, blotted onto nylon filters and hybridized with an mda-6 or GAPDH specific probe. The mda-6 primers were 5′ to 3′ […] (SEQ ID NO:26) and […] (SEQ ID NO:27)(corresponding to nt 1527 to 1546) (GenBank accession number U09579); and the GAPDH primers were 5′ to 3′ […] (SEQ ID NO:28)and […] (SEQ ID NO:29)(corresponding to nt 1070 to 1053) (Tokunaga et al., 1987).

In a further assay the test system is mda-5. In words: mda-5 expression (Northern blotting). The following applies: H0-1; 96 hours; doses of FIG. 15 legend. In kind it is cell-based, human. The protocol: as §1
Another assay has as its system mda-8. The experiment in a line: mda-8 expression (Northern blotting). The note with it: H0-1; 96 hours; doses of FIG. 15 legend. Type of assay: cell-based, human. How it is done: as §1
In a further assay the test system is mda-7. In words: mda-7 expression (Northern blotting, RT-PCR). In kind it is cell-based, human. The note with it: H0-1; 96 hours; doses of FIG. 15 legend. How it is done:
as §1

Another assay concerns H0-1 cells. The experiment in a line: Northern blotting analysis of steady-state mRNA levels. In kind it is cell-based, human. The following applies: FIG. 1 concentrations; for c-jun and jun-B expression / c-myc expression: 96 hours. The protocol: Steady-state levels of specific mRNAs were determined by Northern blotting analysis of total RNA probed with appropriate ^32P-labeled gene probes as described previously (14-16). RNAs were analyzed from cells treated with inducer for 24 hours, treated for 24 hours with inducer followed by growth for 72 hours in the absence of inducer, or treated continuously for 96 hours with the inducer. The concentration of inducing compounds used were the same as those used for growth studies. The effect of conditioned medium on gene expression changes was determined by treating H0-1 cells for 24 hours with a 1:2 dilution of conditioned medium (equal volumes of conditioned medium and DMEM supplemented with 10% fetal bovine serum (DMEM-10) or for 96 hours with a 1:4 dilution of conditioned medium (1 vol. of conditioned medium to 3 vol. of DMEM-10). The probes used in the present study were specific for β-actin (17), γ-actin (17), c-jun (18), c-myc (19), fibronectin (20), gro/MGSA (21), HLA Class I antigen (22), HLA Class II antigen (HLA-DRβ) (22), α5 integrin (23), β1 integrin (24), ISG-15 (25), ISG-54 (25), jun-B (26), and tenascin (27). Northern blots were also probed with a ^32P-labeled GAPDH gene (15) to verify similar mRNA expression under the various experimental conditions. Following hybridization, the filters were washed and exposed for autoradiography.

On to “IFN-γ: Recombinant human immune interferon”, for which, in the assay with mda-4, the mda-4 expression result was “Increased expression”. In addition, the “Growth Suppression (reversible)” value in assay [1] (Table 2) is given as 2+ (2+ = ~40% reduction in growth in comparison with untreated control cultures). Further, in the assay on mda-9, the mda-9 expression result was “No change in mda-9 expression”. Also, the mda-6 expression result with mda-6 is given as “no significant or reduced alteration in expression”. Also, the mda-5 expression result in the assay with mda-5 is on record as “Enhanced expression; also recorded: induced”. In the assay with mda-8, the mda-8 expression result was “enhanced mda-8 expression; also recorded: increased mda-8 expression”. Besides, in the assay with mda-7, the mda-7 expression result is recorded as “No induction in mda-7 expression; also recorded: does not result in significant mda-7 expression”. Also, in the assay on H0-1 cells (96 h), the “HLA Class I antigen gene expression” value is “enhanced HLA Class I antigen expression”, the “HLA Class II antigen gene (HLA-DRβ) expression” value was “enhanced expression”, the fibronectin expression entry is “most effective single agents” and the “induction of gro/MGSA gene expression” value is on record as “did not induce gro/MGSA expression”. In the assay on H0-1 cells (96 h), the tenascin expression entry was “enhanced tenascin expression” and the β1 integrin expression entry was “upregulation”. In addition, in the assay on H0-1 cells, the “c-jun and jun-B expression” value is on record as “increase”; the c-myc expression result was “increased c-myc expression”.

On to `COc1c(C)c2c(c(O)c1C/C=C(\C)CCC(=O)O)C(=O)OC2` [MPA, mycophenolic acid], for which the mda-4 expression result in the assay on mda-4 was “No or only a small change in expression”. In assay [1] (Table 1), the “Growth Suppression (reversible)” value is reported as 3+ (3+ = ~50 to 60% reduction in growth in comparison with untreated control cultures). Moreover, in assay [1] (Table 2), the “Growth Suppression (reversible)” value is given as “− (− = no significant change in growth (<10% reduction in growth in comparison with untreated control cultures))”. Also, the mda-9 expression result in the assay on mda-9 is “No change in mda-9 expression”. In the assay with mda-6, the mda-6 expression result is “no significant or reduced alteration in expression”. Besides, the mda-5 expression result with mda-5 is on record as “No change in expression”. Further, in the assay with mda-8, the mda-8 expression result is recorded as “No change in expression”. In the assay on mda-7, the mda-7 expression entry is “Increased expression; also recorded: induced”. Besides, in the assay on H0-1 cells (96 h), the “HLA Class I antigen gene expression” value is listed as “did not significantly alter”, the fibronectin expression entry is recorded as “most effective single agents”, the “induction of gro/MGSA gene expression” value is “did not” and the tenascin expression result was “enhanced tenascin expression”. Also, in the assay with H0-1 cells, the “c-jun and jun-B expression” value is on record as “increase”; the c-myc expression result is listed as “downregulated”.
